Experimental data as given in ChEMBL document CHEMBL6114953, “De novo discovery of cyclic peptide inhibitors of IL-11 signaling” (Bioorg Med Chem, 2025).
Calls of active or inactive are those of the source. No cut-off for these calls is given here. Where a SMILES comes first, the peptide text is derived from it. Bridges are numbered along the chain shown (N, C = ends). [ ]: non-standard residue; d: D form. ξ: configuration not given here. Met(O) = CS(=O)CC[C@H](N)C(=O)O; ξH = NC(Cc1c[nH]cn1)C(=O)O; Nle = CCCC[C@H](N)C(=O)O

Assays:
[1] = Inhibition of his-tagged recombinant human IL-11 (22 to 199 residues) expressed in HEK293 cells/biotinylated recombinant human IL-11Ralpha (24 to 370 residues) expressed in HEK293 cells incubated for 1 hr by AlphaLISA assay; format: cell-based
[2] = Binding affinity to CAP chip-immobilized IL-6 (unknown origin) by SPR analysis; details: Homo sapiens
Homo sapiens = organism: Homo sapiens; assay: Binding affinity to CAP chip-immobilized IL-6R (unknown origin) by SPR analysis
Interleukin-11 = biological target: T1, Interleukin-11 (Homo sapiens, UniProt P20809); assay: Binding affinity to CAP chip-immobilized IL-11 (unknown origin) assessed as dissociation constant by SPR analysis
T1 sequence (P20809 whole entry): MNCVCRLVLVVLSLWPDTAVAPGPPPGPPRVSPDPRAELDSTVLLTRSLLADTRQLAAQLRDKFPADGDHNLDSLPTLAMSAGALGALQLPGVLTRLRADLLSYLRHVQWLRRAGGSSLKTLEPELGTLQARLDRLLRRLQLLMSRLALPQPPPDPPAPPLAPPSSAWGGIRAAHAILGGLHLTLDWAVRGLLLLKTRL

[3] = biological target: T2, Interleukin-11 receptor subunit alpha (Homo sapiens) (UniProt Q14626); assay: Binding affinity to CAP chip-immobilized biotinylated recombinant human IL-11Ralpha by SPR analysis
T2 sequence (whole entry): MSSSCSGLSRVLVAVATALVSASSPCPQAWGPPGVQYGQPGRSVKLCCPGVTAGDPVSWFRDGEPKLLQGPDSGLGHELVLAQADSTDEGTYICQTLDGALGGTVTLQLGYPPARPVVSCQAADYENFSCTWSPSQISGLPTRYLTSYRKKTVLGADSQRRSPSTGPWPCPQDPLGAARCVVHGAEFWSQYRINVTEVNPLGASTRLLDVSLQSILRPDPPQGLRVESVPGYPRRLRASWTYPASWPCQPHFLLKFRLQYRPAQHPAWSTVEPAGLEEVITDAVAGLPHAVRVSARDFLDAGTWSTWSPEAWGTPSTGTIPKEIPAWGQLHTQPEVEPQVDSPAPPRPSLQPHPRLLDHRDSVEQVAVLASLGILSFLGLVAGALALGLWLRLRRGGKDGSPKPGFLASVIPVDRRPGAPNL

[4] = biological target: T3, Interleukin-11 (Homo sapiens) (UniProt P20809); assay: Binding affinity to CAP chip-immobilized IL-11 (unknown origin) by SPR analysis
T3 sequence (whole entry): T1 sequence (P20809 whole entry)

| Activity [2] | Activity (Homo sapiens) | Kd (Interleukin-11) | Activity [3] | Activity [4] | SMILES | Ki [1] |
| --- | --- | --- | --- | --- | --- | --- |
| inactive | inactive | 2.6 µM | inactive |  | CC(C)[C@@H]1NC(=O)[C@H](CCCNC(=N)N)NC(=O)[C@@H]2CCCN2C(=O)[C@H](CC(=O)O)NC(=O)[C@H](Cc2ccc(O)cc2)NC(=O)[C@H](Cc2c[nH]c3ccccc23)NC(=O)CNC(=O)[C@@H](NC(=O)[C@H](Cc2ccc(O)cc2)NC(=O)[C@H](Cc2c[nH]c3ccccc23)NC(=O)[C@H](Cc2ccccc2)NC(=O)[C@H](CCC(=O)O)NC(=O)[C@@H](NC(=O)[C@@H](NC(=O)[C@H](CCC(=O)O)NC(=O)[C@H](C)N)[C@@H](C)O)C(C)C)CSSC[C@@H](C(=O)N[C@@H](CO)C(=O)N[C@@H](Cc2ccc(O)cc2)C(N)=O)NC(=O)CNC1=O (H-AETVEFWYCGWYDPRVGCSY-NH2; disulfide 9-18) | 0.5 µM |
| inactive | inactive |  | inactive | inactive | C=C(CCCCC)[C@@H](O)[C@H](C)C(=O)N1C(=O)OC[C@@H]1C(C)C | > 28 µM |
| inactive | inactive | 0.14 µM | inactive |  | CSCC[C@@H]1NC(=O)[C@H](Cc2c[nH]cn2)NC(=O)[C@H](CO)NC(=O)[C@@H](NC(=O)[C@H](Cc2c[nH]c3ccccc23)NC(=O)[C@H](Cc2ccc(O)cc2)NC(C)=O)CSSC[C@@H](C(=O)N[C@@H](Cc2c[nH]c3ccccc23)C(=O)N[C@@H](CCCNC(=N)N)C(N)=O)NC(=O)[C@H](C(C)C)NC(=O)[C@H]([C@@H](C)O)NC(=O)[C@H]([C@@H](C)O)NC(=O)[C@H](Cc2ccc(O)cc2)NC(=O)[C@H](Cc2ccc(O)cc2)NC1=O (Ac-YWCSHMYYTTVCWR-NH2; disulfide 3-12) | 0.3 µM |
| inactive | inactive |  | inactive | inactive | CC(C)C[C@@H]1NC(=O)[C@@H]2CCCN2C(=O)[C@H](C(C)C)NC(=O)[C@H](Cc2c[nH]c3ccccc23)NC(=O)[C@@H](NC(=O)[C@H](Cc2ccccc2)NC(=O)[C@H](CCC(=O)O)NC(=O)[C@@H](NC(=O)[C@@H](NC(=O)[C@H](CCC(=O)O)NC(=O)[C@H](C)N)[C@@H](C)O)C(C)C)CSSC[C@@H](C(N)=O)NC(=O)[C@H](C(C)C)NC(=O)[C@H](CCC(N)=O)NC(=O)[C@H](Cc2ccccc2)NC(=O)[C@H](Cc2ccc(O)cc2)NC(=O)[C@H](CO)NC1=O (H-AETVEFCWVPLSYFQVC-NH2; disulfide 7-17) | 1.5 µM |
| inactive | inactive |  | inactive |  | Cc1c(-c2ccc(O)cc2)n(Cc2ccc(OCCN3CCCCCC3)cc2)c2ccc(O)cc12 [BAZEDOXIFENE] | 11.8 µM |
|  |  |  |  |  | CSCC[C@@H]1NC(=O)[C@H](Cc2c[nH]cn2)NC(=O)[C@H](CO)NC(=O)[C@@H](NC(=O)[C@H](Cc2c[nH]c3ccccc23)NC(=O)[C@H](Cc2ccc(O)cc2)NC(C)=O)CSSC[C@@H](C(=O)N[C@@H](Cc2c[nH]c3ccccc23)C(N)=O)NC(=O)[C@H](C(C)C)NC(=O)[C@H]([C@@H](C)O)NC(=O)[C@H]([C@@H](C)O)NC(=O)[C@H](Cc2ccc(O)cc2)NC(=O)[C@H](Cc2ccc(O)cc2)NC1=O (Ac-YWCSHMYYTTVCW-NH2; disulfide 3-12) | > 28 µM |
|  |  |  |  |  | CC(=O)N[C@@H](Cc1ccc(O)cc1)C(=O)N[C@@H](Cc1c[nH]c2ccccc12)C(=O)N[C@H]1CSSC[C@@H](C(=O)N[C@@H](Cc2c[nH]c3ccccc23)C(=O)N[C@@H](CCCNC(=N)N)C(N)=O)NC(=O)[C@H](C(C)C)NC(=O)[C@H]([C@@H](C)O)NC(=O)[C@H]([C@@H](C)O)NC(=O)[C@H](Cc2ccc(O)cc2)NC(=O)[C@H](Cc2ccc(O)cc2)NC(=O)[C@H](CC(C)C)NC(=O)[C@H](Cc2c[nH]cn2)NC(=O)[C@H](CO)NC1=O (Ac-YWCSHLYYTTVCWR-NH2; disulfide 3-12) | 1.9 µM |
|  |  |  |  |  | CCCC[C@@H]1NC(=O)[C@H](Cc2c[nH]cn2)NC(=O)[C@H](CO)NC(=O)[C@@H](NC(=O)[C@H](Cc2c[nH]c3ccccc23)NC(=O)[C@H](Cc2ccc(O)cc2)NC(C)=O)CSSC[C@@H](C(=O)N[C@@H](Cc2c[nH]c3ccccc23)C(=O)N[C@@H](CCCNC(=N)N)C(N)=O)NC(=O)[C@H](C(C)C)NC(=O)[C@H]([C@@H](C)O)NC(=O)[C@H]([C@@H](C)O)NC(=O)[C@H](Cc2ccc(O)cc2)NC(=O)[C@H](Cc2ccc(O)cc2)NC1=O (Ac-YWCSH[Nle]YYTTVCWR-NH2; disulfide 3-12) | 0.9 µM |
|  |  |  |  |  | CC(C)C[C@@H]1NC(=O)[C@H](Cc2c[nH]c3ccccc23)NC(=O)[C@@H](NC(=O)[C@H](Cc2ccccc2)NC(=O)[C@H](CCC(=O)O)NC(=O)[C@@H](NC(=O)[C@@H](NC(=O)[C@H](CCC(=O)O)NC(=O)[C@H](C)N)[C@@H](C)O)C(C)C)CSSC[C@@H](C(N)=O)NC(=O)[C@H](CCC(=O)O)NC(=O)[C@H](Cc2ccc(O)cc2)NC(=O)[C@H](Cc2c[nH]c3ccccc23)NC(=O)[C@H](Cc2ccc(O)cc2)NC(=O)C(Cc2c[nH]cn2)NC(=O)[C@H](Cc2c[nH]c3ccccc23)NC(=O)[C@@H]2CCCN2C1=O (stereo partly specified) (H-AETVEFCWLPW[ξH]YWYEC-NH2; disulfide 7-17) | 1.3 µM |
|  |  |  |  |  | CC(C)[C@H](NC(=O)[C@@H](NC(=O)[C@H](CCC(N)=O)NC(=O)[C@H](C)N)[C@@H](C)O)C(=O)N[C@@H](CCC(N)=O)C(=O)N[C@@H](Cc1ccccc1)C(=O)N[C@@H](Cc1ccc(O)cc1)C(=O)N[C@@H](Cc1c[nH]c2ccccc12)C(=O)N[C@H]1CSSC[C@@H](C(=O)N[C@@H](Cc2c[nH]c3ccccc23)C(=O)N[C@@H](CCCNC(=N)N)C(N)=O)NC(=O)[C@H](C(C)C)NC(=O)[C@H]([C@@H](C)O)NC(=O)[C@H]([C@@H](C)O)NC(=O)[C@H](Cc2ccc(O)cc2)NC(=O)[C@H](Cc2ccc(O)cc2)NC(=O)[C@H](CC[S+](C)[O-])NC(=O)[C@H](Cc2c[nH]cn2)NC(=O)[C@H](CO)NC1=O (stereo partly specified) (H-AQTVQFYWCSH[Met(O)]YYTTVCWR-NH2; disulfide 9-18) | 0.32 µM |
|  |  |  |  |  | CSCC[C@@H]1NC(=O)[C@H](Cc2c[nH]cn2)NC(=O)[C@H](CO)NC(=O)[C@@H](NC(=O)[C@H](Cc2c[nH]c3ccccc23)NC(=O)[C@H](Cc2ccc(O)cc2)NC(C)=O)CSSC[C@@H](C(N)=O)NC(=O)[C@H](C(C)C)NC(=O)[C@H]([C@@H](C)O)NC(=O)[C@H]([C@@H](C)O)NC(=O)[C@H](Cc2ccc(O)cc2)NC(=O)[C@H](Cc2ccc(O)cc2)NC1=O (Ac-YWCSHMYYTTVC-NH2; disulfide 3-12) | > 28 µM |
| inactive | inactive |  | inactive | inactive | C[C@@H]1NC(=O)[C@H](CCCNC(=N)N)NC(=O)[C@H](CCCNC(=N)N)NC(=O)CNC(=O)[C@@H](N)CSSC[C@@H](C(N)=O)NC(=O)[C@H](CO)NC(=O)CNC(=O)CNC1=O (H-CGRRAGGSC-NH2; disulfide 1-9) | > 28 µM |
|  |  |  |  |  | CC(=O)N[C@@H](Cc1ccc(O)cc1)C(=O)N[C@@H](Cc1c[nH]c2ccccc12)C(=O)N[C@H]1CSSC[C@@H](C(=O)N[C@@H](Cc2c[nH]c3ccccc23)C(=O)N[C@@H](CCCNC(=N)N)C(N)=O)NC(=O)[C@H](C(C)C)NC(=O)[C@H]([C@@H](C)O)NC(=O)[C@H]([C@@H](C)O)NC(=O)[C@H](Cc2ccc(O)cc2)NC(=O)[C@H](Cc2ccc(O)cc2)NC(=O)CNC(=O)[C@H](Cc2c[nH]cn2)NC(=O)[C@H](CO)NC1=O (Ac-YWCSHGYYTTVCWR-NH2; disulfide 3-12) | 1.7 µM |
| inactive | inactive |  | inactive | inactive | CC(C)C[C@@H]1NC(=O)[C@@H]2CCCN2C(=O)[C@H](CC(C)C)NC(=O)[C@H](Cc2c[nH]c3ccccc23)NC(=O)[C@@H](NC(=O)[C@H](Cc2ccccc2)NC(=O)[C@H](CCC(=O)O)NC(=O)[C@@H](NC(=O)[C@@H](NC(=O)[C@H](CCC(=O)O)NC(=O)[C@H](C)N)[C@@H](C)O)C(C)C)CSSC[C@@H](C(N)=O)NC(=O)[C@H](Cc2ccccc2)NC(=O)[C@H](Cc2ccc(O)cc2)NC(=O)[C@H](Cc2c[nH]c3ccccc23)NC(=O)[C@H](Cc2c[nH]cn2)NC(=O)[C@H](CO)NC1=O (H-AETVEFCWLPLSHWYFC-NH2; disulfide 7-17) | 1.36 µM |
